“Also recorded” adds a separate entry of the source.
Tested on: CYH2-PTC-FF reporter
Test: dual luciferase (Firefly/Renilla) CYH2-PTC reporter assay
Assay type: cell-based, yeast
Description: FIG. 1: Schematic representation of comparative dual luciferase PTC assay as employed here. Firefly (FF) and Renilla (R) in wild type (WT) yeast cells are compared with luminescence counts of a PTC-FF reporter (e.g. the CYH2-PTC-FF reporter) in wild type yeast cells, wherein a PTC reduces the FF protein and thus luminescence.
FIG. 3: Gene dosage of ribosomal proteins modulates level of protein expression from PTC mRNAs. […] In FIG. 3B, a modulation of the expression of the FF/FF(PTC) reporter in selected ribosomal protein deletion strains is shown. In FIG. 3C, a modulation of expression of the LAMB3-FF/LAMB3(PTC)-FF reporter in selected ribosomal protein deletion strains is shown.
The yeast CYH2 was amplified from the genomic yeast DNA with the primers LG 751 and LG 752. The ATG of the CYH2 was left out to be in frame with the promoter and the firefly luciferase reporter. The 1.0 kb PCR product and pLBK 162 were digested with KpnI and SacI. The CYH2-PTC reporter was ligated in pLBK 162, thus generating pLBK 165 (FIG. 5f). […]
The reporter plasmids are to be transformed in the WT and ribosomal protein deletion strains. […] For testing the different levels of read-through a PTC containing reporter plasmid (e.g. pLBK 165) and for internal standard pLBK 164 are used. […]

## gentamycin
RPL10/ΔRPL10 gene dosage reduced yeast strain, gentamycin added
  expression level of the CYH2-PTC-FF reporter: not strong or not present at all; also recorded: does not contribute to alteration
WT yeast strain (BY4743), gentamycin added as control
  CYH2-PTC-FF level (Firefly signal): the signal increases; also recorded: induce an increase
